# Assay results: ChEMBL document CHEMBL4613322, “HOPPI-NMR: Hot-Peptide-Based Screening Assay for Inhibitors of Protein-Protein Interactions by NMR” (ACS Med Chem Lett, 2020)
# Peptide text beside a SMILES is read from it.
# What was measured:
# [1] = Solubility of compound in PBS; format: physicochemical
# Bcl-2-like protein 1 = Bcl-2-like protein 1 (Mus musculus, UniProt Q64373); experiment: Binding affinity to BCL-xl in murine B-cell lymphoma assessed as inhibition of BCL-xl/Bax protein-protein interaction
# Bcl-2-like protein 1, sequence (Q64373 whole entry): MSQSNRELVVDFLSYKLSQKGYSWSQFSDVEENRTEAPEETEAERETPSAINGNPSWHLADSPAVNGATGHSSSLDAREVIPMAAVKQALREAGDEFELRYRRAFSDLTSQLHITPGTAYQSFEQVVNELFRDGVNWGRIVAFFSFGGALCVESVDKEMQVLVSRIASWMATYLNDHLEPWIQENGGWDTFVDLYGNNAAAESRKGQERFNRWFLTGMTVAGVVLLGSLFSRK
# [2] = target: T1, AP-1 complex subunit beta-1 (Homo sapiens, UniProt Q10567); experiment: Binding affinity to beta-adaptin 1 (unknown origin) by fluorescence polarization assay
# T1 sequence (Q10567 whole entry): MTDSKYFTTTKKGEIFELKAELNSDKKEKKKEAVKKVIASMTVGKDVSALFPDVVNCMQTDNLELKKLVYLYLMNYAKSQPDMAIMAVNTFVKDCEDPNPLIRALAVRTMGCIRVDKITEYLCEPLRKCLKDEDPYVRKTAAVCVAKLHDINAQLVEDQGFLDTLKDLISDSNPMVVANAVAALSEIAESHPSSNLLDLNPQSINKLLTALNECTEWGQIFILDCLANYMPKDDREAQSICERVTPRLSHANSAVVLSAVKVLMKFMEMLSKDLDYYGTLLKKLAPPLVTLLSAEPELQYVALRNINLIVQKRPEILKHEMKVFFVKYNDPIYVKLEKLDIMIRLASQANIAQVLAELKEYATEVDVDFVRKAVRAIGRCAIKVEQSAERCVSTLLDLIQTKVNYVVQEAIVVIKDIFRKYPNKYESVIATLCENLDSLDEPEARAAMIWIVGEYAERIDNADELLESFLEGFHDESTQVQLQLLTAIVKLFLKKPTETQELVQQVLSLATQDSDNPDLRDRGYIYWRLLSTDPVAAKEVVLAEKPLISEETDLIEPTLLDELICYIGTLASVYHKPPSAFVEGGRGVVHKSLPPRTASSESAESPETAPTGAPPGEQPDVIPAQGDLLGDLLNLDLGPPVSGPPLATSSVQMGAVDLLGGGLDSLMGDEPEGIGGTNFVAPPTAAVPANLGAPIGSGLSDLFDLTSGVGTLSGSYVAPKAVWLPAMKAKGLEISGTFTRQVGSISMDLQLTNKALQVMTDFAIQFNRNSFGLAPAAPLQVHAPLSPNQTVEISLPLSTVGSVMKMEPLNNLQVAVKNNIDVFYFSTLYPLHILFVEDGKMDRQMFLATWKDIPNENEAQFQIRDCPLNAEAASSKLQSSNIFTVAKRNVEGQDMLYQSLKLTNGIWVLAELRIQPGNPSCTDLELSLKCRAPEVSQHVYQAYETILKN
compound,measurement,setting,value
COc1ccc(C2=N[C@@H](c3ccc(Cl)cc3)[C@@H](c3ccc(Cl)cc3)N2C(=O)N2CCNC(=O)C2)c(OC(C)C)c1 [NUTLIN-3],solubility,[1],100 µM
CC[C@H](C)[C@H](NC(=O)[C@H](CCCN=C(N)N)NC(=O)[C@H](CCCCN)NC(=O)[C@H](CC(C)C)NC(=O)[C@H](CS)NC(=O)[C@H](CCC(=O)O)NC(=O)[C@H](CO)NC(=O)[C@H](CC(C)C)NC(=O)[C@H](CCCCN)NC(=O)[C@@H](N)CCCCN)C(=O)NCC(=O)N[C@@H](CC(=O)O)C(=O)N[C@@H](CCC(=O)O)C(=O)N[C@@H](CC(C)C)C(=O)N[C@@H](CC(=O)O)C(=O)N[C@@H](CO)C(=O)O (H-KKLSECLKRIGDELDS-OH),Kd,Bcl-2-like protein 1,13 µM
CC[C@H](C)[C@H](NC(=O)[C@H](CC(=O)O)NC(=O)[C@H](CC(=O)O)NC(=O)[C@@H](N)CC(=O)O)C(=O)N[C@H](C(=O)N[C@@H](Cc1ccccc1)C(=O)N[C@@H](CCC(=O)O)C(=O)N[C@@H](CC(=O)O)C(=O)N[C@@H](Cc1ccccc1)C(=O)N[C@@H](C)C(=O)N[C@@H](CCCNC(=N)N)C(=O)N[C@@H](CCC(N)=O)C(=O)N[C@@H](CCCNC(=N)N)C(=O)N[C@@H](CC(C)C)C(=O)N[C@@H](CCCCN)C(=O)NCC(=O)N[C@@H](CCSC)C(=O)N[C@@H](CCCCN)C(=O)N[C@@H](CC(=O)O)C(=O)N[C@@H](CC(=O)O)C(=O)O)C(C)C (H-DDDIVFEDFARQRLKGMKDD-OH),Kd,[2],2.1 µM
